Reference: patent US4474777A, “Benzodiazepine derivatives and their pharmaceutical use” (Hoffmann-La Roche Inc., priority 1982, dated 1984)

Experiments:
[1] = system: intestinal resorption of cholesterol; test: inhibition of the intestinal resorption of cholesterol (CHORES), radioactive cholesterol test feed, faeces radioactivity; format: in vivo, normal female albino rats; details: rats, 100 μmol/kg p.o.; faeces collected for three days; untreated control = 100%
Protocol: The substances to be investigated are administered to groups each comprising 6 normal female albino rats (body weight about 70 g) by means of a probang. Immediately thereafter the animals received by means of a probang a test feed containing a radioactive cholesterol. Thereafter, the faeces is collected for three days, freeze-dried and pulverized, and an aliquot is burnt in order to determine the radioactivity of the faeces. Untreated control animals excrete about 40-50% of the radioactive cholesterol taken up with the feed. The radioactive cholesterol which is not excreted is regarded as the resorbed cholesterol, the amount of resorbed cholesterol in the untreated control animals being arbitrarily fixed as 100%. Animals which have been treated with a substance inhibiting the intestinal resorption of cholesterol show a lower resorption of radioactive cholesterol than untreated control animals. The cholesterol resorption (CHORES) is expressed in percentages of the cholesterol resorption of untreated control animals.
(§1) In the following Table there are given the results obtained with representative products provided by the invention. There are given for each of the compounds listed therein the dosage administered (in μmol/kg p.o.) as well as the cholesterol resorption (CHORES) determined in percentages of the cholesterol resorption of untreated control animals. Moreover, the Table contains information concerning the acute toxicity of the compounds investigated (LD50 in mg/kg in the case of single oral administration to mice).

[2] = acute toxicity, single oral administration to mice; details: mouse, in vivo, single oral administration (p.o.)
From the text: as §1

| SMILES | CHORES (cholesterol resorption in percentages of the cholesterol resorption of untreated control animals) [1] [%] | LD50 [2] [mg/kg] |
| --- | --- | --- |
| C[C@@H]1N=C(c2ccccc2Cl)c2c(ccc(NC(=O)NCC(O)CO)c2Br)N(C)C1=O (stereo partly drawn) [NHCH2 CH(OH)CH2 OH, 1-[(S)-6-bromo-5-(o-chlorophenyl)-2,3-dihydro-1,3-dimethyl-2-oxo-1H-1,4-benzodiazepin-7-yl]-3-(2,3-dihydroxypropyl)urea] | 24 |  |
| C[C@@H]1N=C(c2ccccc2Cl)c2c(ccc(NC(=O)N3CCCC(O)C3)c2Br)N(C)C1=O (some centres unmarked) | 44 |  |
| C[C@@H]1N=C(c2ccccc2Cl)c2c(ccc(NC(=O)NC3CCC(O)CC3)c2Br)N(C)C1=O (some centres unmarked) | 34 |  |
| C[C@@H]1N=C(c2ccccc2Cl)c2c(ccc(NC(=O)NC(CO)(CO)CO)c2Br)N(C)C1=O [NHC(CH2 OH)3, 1-[(S)-6-bromo-5-(o-chlorophenyl)-2,3-dihydro-1,3-dimethyl-2-oxo-1H-1,4-benzodiazepin-7-yl]-3-[2-hydroxy-1,1-bis(hydroxymethyl)ethyl]urea] | 30 | > 5000 |
| C[C@@H]1N=C(c2ccccc2Cl)c2c(ccc(NC(=O)NCC3COC(C)(C)O3)c2Br)N(C)C1=O (some centres unmarked) | 25 |  |
| C[C@@H]1N=C(c2ccccc2Cl)c2c(ccc(NC(=O)NC(C)(CO)CO)c2Br)N(C)C1=O [NHC(CH3)(CH2 OH)2, 1-[(S)-6-bromo-5-(o-chlorophenyl)-2,3-dihydro-1,3-dimethyl-2-oxo-1H-1,4-benzodiazepin-7-yl]-3-[1,1-bis(hydroxymethyl)ethyl]urea] | 31 | > 5000 |
